Test [1] has as its target Cholinesterase (Homo sapiens, UniProt P06276). In words: Inhibition of BChE (unknown origin) using butyrylthiocholine chloride as substrate preincubated for 15 min.
For test [2], the target named is Acetylcholinesterase (Electrophorus electricus, UniProt O42275). In words: Inhibition of Electrophorus electricus (electric eel) acetylcholinesterase (AChE) using acetylthiocholine iodide as substrate preincubated for 15 min.
Chain of Acetylcholinesterase (O42275 whole entry): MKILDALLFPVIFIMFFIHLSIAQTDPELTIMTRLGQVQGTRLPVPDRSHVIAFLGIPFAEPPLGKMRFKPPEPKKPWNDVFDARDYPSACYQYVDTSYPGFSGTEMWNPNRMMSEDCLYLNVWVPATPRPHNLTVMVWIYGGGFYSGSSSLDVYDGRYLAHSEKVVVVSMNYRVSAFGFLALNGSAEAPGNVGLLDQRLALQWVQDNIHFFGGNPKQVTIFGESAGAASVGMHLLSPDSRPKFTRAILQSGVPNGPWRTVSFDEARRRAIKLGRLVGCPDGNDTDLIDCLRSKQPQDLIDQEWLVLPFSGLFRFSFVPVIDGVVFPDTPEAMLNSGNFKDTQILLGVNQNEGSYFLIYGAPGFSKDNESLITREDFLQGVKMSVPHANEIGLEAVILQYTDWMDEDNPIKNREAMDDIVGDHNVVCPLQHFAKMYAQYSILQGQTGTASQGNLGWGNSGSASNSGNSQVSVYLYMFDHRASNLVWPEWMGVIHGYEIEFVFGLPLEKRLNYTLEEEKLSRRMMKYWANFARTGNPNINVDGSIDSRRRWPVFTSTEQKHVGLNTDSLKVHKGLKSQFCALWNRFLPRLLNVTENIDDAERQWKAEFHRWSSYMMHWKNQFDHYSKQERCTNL

Chain of Cholinesterase (P06276 whole entry): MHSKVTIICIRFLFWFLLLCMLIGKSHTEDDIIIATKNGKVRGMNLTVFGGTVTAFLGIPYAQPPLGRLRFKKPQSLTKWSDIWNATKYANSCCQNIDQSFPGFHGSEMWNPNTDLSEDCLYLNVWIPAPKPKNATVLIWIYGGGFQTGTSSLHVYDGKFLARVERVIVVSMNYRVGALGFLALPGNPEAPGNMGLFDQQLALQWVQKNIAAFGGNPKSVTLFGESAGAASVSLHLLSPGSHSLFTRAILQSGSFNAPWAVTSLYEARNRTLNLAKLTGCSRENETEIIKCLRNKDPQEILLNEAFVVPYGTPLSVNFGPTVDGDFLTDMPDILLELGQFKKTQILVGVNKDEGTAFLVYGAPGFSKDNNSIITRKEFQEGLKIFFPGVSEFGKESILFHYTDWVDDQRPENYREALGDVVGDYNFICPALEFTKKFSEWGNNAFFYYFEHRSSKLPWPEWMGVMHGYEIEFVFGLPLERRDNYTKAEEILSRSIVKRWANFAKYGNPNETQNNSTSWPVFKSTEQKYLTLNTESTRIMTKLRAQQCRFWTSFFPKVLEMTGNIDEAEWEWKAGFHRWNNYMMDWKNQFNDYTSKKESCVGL

The IC50 is the concentration that gives 50% inhibition. Turning to `O=[N+]([O-])c1ccc(C2CC(c3ccccc3)=Nc3ccccc3S2)cc1` (configuration not stated), the IC50 in test [1] (read-out: IC50) is 60 µM; in test [2] (read-out: IC50), 102 µM.
With `c1ccc(C2=Nc3ccccc3SC(c3ccccc3)C2)cc1` (configuration not stated), the IC50 entry in test [1] and in test [2] was “Not Active” each time.
Turning to `Cc1ccc(C2CC(c3ccccc3)=Nc3ccccc3S2)cc1` (configuration not stated), the IC50 entry in test [1] and in test [2] was “Not Active” throughout.
In the case of `COc1ccc(C2CC(c3ccccc3)=Nc3ccccc3S2)cc1OC` (configuration not stated), the IC50 result in test [1] and in test [2] was “Not Active” each time.
On to `Oc1ccccc1C1=Nc2ccccc2SC(c2ccccc2)C1` (configuration not stated), for which the IC50 result in test [1] and in test [2] was “Not Active” throughout.
With `Oc1ccccc1C1=Nc2ccccc2SC(c2ccc(Cl)cc2)C1` (configuration not stated), the IC50 result in test [1] and in test [2] was “Not Active” each time.
`Oc1ccccc1C1=Nc2ccccc2SC(c2ccc(F)cc2)C1` (configuration not stated): the IC50 entry in test [1] and in test [2] was “Not Active” each time.
`COc1cccc(C2CC(c3ccccc3O)=Nc3ccccc3S2)c1` (configuration not stated): the IC50 result in test [1] and in test [2] was “Not Active” throughout.
Consider `COc1ccc(C2CC(c3ccccc3O)=Nc3ccccc3S2)cc1` (configuration not stated), for which the 50% inhibitory concentration (IC50) entry in test [1] and in test [2] was “Not Active” in each case.
On to `Cc1ccc(C2CC(c3ccccc3O)=Nc3ccccc3S2)cc1` (configuration not stated), for which the IC50 entry in test [1] and in test [2] was “Not Active” each time.
Turning to `Oc1ccccc1C1=Nc2ccccc2SC(c2ccc3c(c2)OCO3)C1` (configuration not stated), the IC50 entry in test [1] and in test [2] was “Not Active” each time.
Regarding `Oc1cccc(C2=Nc3ccccc3SC(c3ccccc3)C2)c1` (configuration not stated), the figures for the IC50 in test [1] (read-out: IC50) and in test [2] (read-out: IC50) were 142 µM and 40 µM, respectively.
`COc1ccccc1C1CC(c2cccc(O)c2)=Nc2ccccc2S1` (configuration not stated): the IC50 result in test [2] is “Not Active”.
With `COc1ccc(C2CC(c3cccc(O)c3)=Nc3ccccc3S2)cc1OC` (configuration not stated), in test [2], the IC50 entry is listed as “Not Active”.
`O=[N+]([O-])c1ccc(C2CC(c3cccc(O)c3)=Nc3ccccc3S2)cc1` (configuration not stated): the IC50 entry in test [1] and in test [2] was “Not Active” in each case.
For the compound `Cc1ccc(C2CC(c3cccc(O)c3)=Nc3ccccc3S2)cc1` (configuration not stated), the IC50 in test [2] (read-out: IC50) worked out at 49.8 µM.
Consider `Oc1cccc(C2=Nc3ccccc3SC(c3cccnc3)C2)c1` (configuration not stated), for which the IC50 entry in test [1] and in test [2] was “Not Active” throughout.
As for `Oc1cccc(C2=Nc3ccccc3SC(c3cccs3)C2)c1` (configuration not stated), in test [2] (read-out: IC50), the concentration for half-maximal inhibition (IC50) worked out at 5.9 µM.
With `Oc1cccc(C2=Nc3ccccc3SC(c3ccc(Cl)cc3)C2)c1` (configuration not stated), the figures for the IC50 in test [1] (read-out: IC50) and in test [2] (read-out: IC50) were 76.9 µM and 18.8 µM, respectively.
In the case of `CN(C)c1ccc(C2CC(c3cccc(O)c3)=Nc3ccccc3S2)cc1` (configuration not stated), the IC50 entry in test [2] is recorded as “Not Active”.
Regarding `Oc1cccc(C2=Nc3ccccc3SC(c3cccc(O)c3)C2)c1` (configuration not stated), the IC50 in test [2] (read-out: IC50) is 71.1 µM.
Consider `Oc1cccc(C2=Nc3ccccc3SC(c3ccccc3Cl)C2)c1` (configuration not stated), for which the IC50 result in test [1] and in test [2] was “Not Active” in each case.
With `O=[N+]([O-])c1cccc(C2CC(c3cccc(O)c3)=Nc3ccccc3S2)c1` (configuration not stated), the IC50 entry in test [1] and in test [2] was “Not Active” throughout.
As to `Oc1cccc(C2=Nc3ccccc3SC(c3cccc(Cl)c3)C2)c1` (configuration not stated), the IC50 entry in test [2] is “Not Active”.
As to `Oc1cccc(C2=Nc3ccccc3SC(c3ccccc3F)C2)c1` (configuration not stated), the IC50 result in test [1] was “Not Active”; in test [2] (read-out: IC50), 70.6 µM.
Turning to `Oc1ccc(C2CC(c3cccc(O)c3)=Nc3ccccc3S2)cc1` (configuration not stated), the IC50 entry in test [1] and in test [2] was “Not Active” in each case.
`COc1cc(C2CC(c3cccc(O)c3)=Nc3ccccc3S2)ccc1O` (configuration not stated): the IC50 entry in test [1] and in test [2] was “Not Active” in each case.

These data come from ChEMBL document CHEMBL3046340, “In silico studies on 2,3-dihydro-1,5-benzothiazepines as cholinesterase inhibitors” (Med Chem Res, 2012).
